Six molecules from publication PMC8876231, “Analogues of Natural Chalcones as Efficient Inhibitors of AKR1C3” (Metabolites, 2022) can be followed below.

Format in all cases: biochemical
Conditions in all cases: 10 µM compound; mean ± SD

For one experiment, the target named is T1, AKR1C4 (Homo sapiens, UniProt P17516).
T1 construct: Myc (N); expressed in transfected cells; host or cells: HEK293
T1 sequence (P17516 1-323): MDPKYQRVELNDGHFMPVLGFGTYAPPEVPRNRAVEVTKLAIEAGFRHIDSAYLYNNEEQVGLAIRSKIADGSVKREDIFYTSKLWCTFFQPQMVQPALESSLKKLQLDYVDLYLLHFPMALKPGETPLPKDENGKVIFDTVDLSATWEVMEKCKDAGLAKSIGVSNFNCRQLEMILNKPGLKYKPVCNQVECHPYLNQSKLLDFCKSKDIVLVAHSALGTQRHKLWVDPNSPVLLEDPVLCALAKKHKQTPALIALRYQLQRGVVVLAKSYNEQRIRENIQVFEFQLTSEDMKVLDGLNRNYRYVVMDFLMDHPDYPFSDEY
Nature of the experiment: AKR1C4 inhibition assay (DHT to 3α-androstanediol). The text has this: (§1) For enzymatic assays and inhibitor testing, all enzymes were cloned into bacterial or mammalian expression vectors. AKR1C3 and the human hydroxysteroid dehydrogenases HSD17B1, HSD17B2, HSD17B4 (SDR domain), HSD17B7, and HSD17B10 were cloned into a pGEX vector as described in [71, 72]. The coding sequences for AKR1C1, AKR1C2, and AKR1C4 were cloned by Gateway technology into the pcDNA3-N-MycDest vector according to the manufacturer’s instructions (Life Technologies, Carlsbad, CA, USA). The p11 plasmid coding for HSD17B14 (S205 variant) was a gift from Udo Opperman SGC Oxford, UK. For assays with HSD17B3, HEK293 cells stably expressing HSD17B3 were used. Enzymes were expressed in E. coli BL21 DE3 or E. coli BL21 DE3 Codon Plus RP (Stratagene, San Diego, CA, USA) or in HEK293 cells as described in [71, 72, 73]. Bacterial and cell pellets were stored at −20 °C and −80 °C, respectively, until use.
(§2) Inhibition assays were carried out as described in [71, 74]. […] For a detailed assay setup, see Supplementary Table S6. The incubation at 37 °C was stopped with 0.21 M ascorbic acid in methanol:acetic acid 99:1 (v:v) after the time needed to convert approximately 30% of the substrate in a control assay with 1% DMSO, without inhibitor candidate. Substrates and products were extracted from the reaction mixture by solid-phase extraction using C18 cartridges (Phenomenex, Aschaffenburg, Germany) and separated by RP–HPLC in a Beckman–Coulter HPLC Gold system, using the Luna 5 µm C18(2), 125 × 4.0 mm column (Phenomenex). The mobile phases used were H2O:ACN (57:43 (v:v); for assays of estrone (E1) to oestradiol (E2), E2 to E1, and ∆4-androstene-3,17-dione to testosterone conversion), H2O:ACN (49:51 (v:v); for assays of progesterone to 20α-hydroxyprogesterone conversion), and H2O:MeOH (35:65 (v:v) for assays of dihydrotestosterone (DHT) to 3α-androstanediol conversion) at a flow rate of 1 mL/min. Radioactivity was detected by online scintillation counting by using a radioactivity monitor (LB506D, Berthold Technologies, Bad Wildbad, Germany). Conversion of substrates to products was determined by integration of the peak area of the substrate and product peaks in percent. For calculation of inhibition, the conversion of control assay (assay without inhibitor) was set to 0% inhibition. All assays were run in triplicates, and mean values ± SD are reported.
(§3) Table S6: Activity assay setup […]
(§4) E1: estrone; E2: 17β-estradiol, A: Δ4-androstene-3,17-dione; T: testosterone, P: progesterone, 20αOHP: 20α-hydroxyprogesterone, DHT: dihydrotestosterone, 3α-Adiol: 3α-androstanediol, NaPi: 100 mM Na-phosphate buffer; PI: C0mplete protease inhibitor (Roche);. E.coli - Expression in E.coli BL21 DE3 Codon Plus RP except E.coli BL21 DE3 […]
(§5) application to antiparasitic and natural product synthesis. Eur J Org Chem […]
(§6) Synthesis of Xanthohumol analogues and discovery of potent thioredoxin reductase inhibitor as potential anticancer agent. J Med Chem 2015, 58,

Another experiment has as its target T2, HSD17B10 (Homo sapiens, UniProt Q99714).
T2 construct: GST (own knowledge: pGEX vectors encode N-terminal GST); made in house; host or cells: E. coli BL21 DE3 Codon Plus RP
T2 sequence (Q99714 1-261): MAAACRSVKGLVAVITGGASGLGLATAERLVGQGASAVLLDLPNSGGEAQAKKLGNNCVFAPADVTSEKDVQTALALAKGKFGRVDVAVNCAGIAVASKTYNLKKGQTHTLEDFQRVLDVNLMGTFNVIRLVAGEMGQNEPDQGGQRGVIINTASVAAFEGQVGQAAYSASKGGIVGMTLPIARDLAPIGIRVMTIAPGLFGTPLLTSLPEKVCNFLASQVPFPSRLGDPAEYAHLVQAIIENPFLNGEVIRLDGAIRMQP
Kind of experiment: HSD17B10 inhibition assay (oestradiol to estrone).
Text: as §1, §2, §3, §4, §5, §6

The next experiment has as its target T3, HSD17B7 (Homo sapiens, UniProt P56937).
T3 construct: GST (own knowledge: pGEX vectors encode N-terminal GST); made in house; host or cells: E. coli BL21 DE3 Codon Plus RP
T3 sequence (P56937 1-341): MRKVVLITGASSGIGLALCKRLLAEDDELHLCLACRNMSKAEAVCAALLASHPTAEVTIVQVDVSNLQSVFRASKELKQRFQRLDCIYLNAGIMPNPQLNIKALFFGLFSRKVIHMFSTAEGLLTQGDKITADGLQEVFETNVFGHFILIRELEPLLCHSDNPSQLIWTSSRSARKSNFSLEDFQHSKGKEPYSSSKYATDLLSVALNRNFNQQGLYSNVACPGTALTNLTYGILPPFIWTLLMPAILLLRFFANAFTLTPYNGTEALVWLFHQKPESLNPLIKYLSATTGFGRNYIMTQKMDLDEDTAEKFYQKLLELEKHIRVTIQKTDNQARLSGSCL
Nature of the experiment: HSD17B7 inhibition assay (estrone to oestradiol).
Text: as §1, §2, §3, §4, §5, §6

The target of a further experiment is T4, HSD17B2 (Homo sapiens, UniProt P37059).
T4 construct: GST (own knowledge: pGEX vectors encode N-terminal GST); made in house; host or cells: E. coli BL21 DE3 Codon Plus RP
T4 sequence (P37059 1-387): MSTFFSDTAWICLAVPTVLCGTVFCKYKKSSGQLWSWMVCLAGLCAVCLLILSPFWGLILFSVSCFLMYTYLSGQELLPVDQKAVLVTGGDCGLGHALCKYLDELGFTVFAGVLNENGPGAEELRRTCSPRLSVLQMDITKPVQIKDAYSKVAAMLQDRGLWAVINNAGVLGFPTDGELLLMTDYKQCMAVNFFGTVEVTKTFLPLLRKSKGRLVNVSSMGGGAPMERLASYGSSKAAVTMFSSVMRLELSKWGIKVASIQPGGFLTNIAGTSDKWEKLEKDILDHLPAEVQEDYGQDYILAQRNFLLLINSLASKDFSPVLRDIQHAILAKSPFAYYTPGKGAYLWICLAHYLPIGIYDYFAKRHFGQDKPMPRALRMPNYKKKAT
Nature of the experiment: HSD17B2 inhibition assay (oestradiol to estrone).
Text: as §1, §2, §3, §4, §5, §6

Structures are written as SMILES. Several values for one entry are separate records, joined by “and”; a condition that tells them apart may be missing. Identical values can stand only once.

Consider `COc1ccc(/C=C/C(=O)c2c(O)cc(O)cc2OC)cc1` [Compound 18], for which the “Inhibition of AKR1C4 at 10 µM in %” value on AKR1C4 amounted to 25.0 ± 1.5%. In addition, the “Inhibition of HSD17B10 at 10 µM in %” value at HSD17B10 is recorded as -0.5 ± 6.5%. Moreover, the “Inhibition of HSD17B7 at 10 µM in %” value at HSD17B7 came to 6.5 ± 6.7%. The “Inhibition of HSD17B2 at 10 µM in %” value on HSD17B2 came to 10.4 ± 1.6%.

As for `COc1ccc(/C=C/C(=O)c2c(O)cc(O)cc2O)cc1` [Compound 19], the “Inhibition of AKR1C4 at 10 µM in %” value on AKR1C4 is 93.3 ± 0.7% and > 75%. Also, the “Inhibition of HSD17B10 at 10 µM in %” value at HSD17B10 amounted to 2.2 ± 2.6%. Further, the “Inhibition of HSD17B7 at 10 µM in %” value at HSD17B7 was found to be 4.6 ± 4.4%. Besides, the “Inhibition of HSD17B2 at 10 µM in %” value at HSD17B2 stood at 29.6 ± 3.7%.

With `Cc1cccc(/C=C/C(=O)c2c(O)cc(O)cc2O)c1` [Compound 20], on AKR1C4, the “Inhibition of AKR1C4 at 10 µM in %” value is 79.6 ± 0.2% and > 75%. For the same molecule, the “Inhibition of HSD17B10 at 10 µM in %” value on HSD17B10 is listed as -2.5 ± 0.7%. The “Inhibition of HSD17B7 at 10 µM in %” value at HSD17B7 was 3.8 ± 3.5%. The “Inhibition of HSD17B2 at 10 µM in %” value on HSD17B2 was determined as 61.0 ± 0.9%.

Turning to `Cc1ccc(/C=C/C(=O)c2c(O)cc(O)cc2O)cc1` [Compound 21], the “Inhibition of AKR1C4 at 10 µM in %” value on AKR1C4 is 91.6 ± 1.5% and > 75%. The “Inhibition of HSD17B10 at 10 µM in %” value on HSD17B10 came to 8.0 ± 6.5%. Moreover, the “Inhibition of HSD17B7 at 10 µM in %” value on HSD17B7 came to 6.8 ± 4.7%. The “Inhibition of HSD17B2 at 10 µM in %” value on HSD17B2 turned out to be 44.2 ± 4.7%.

Consider `O=C(/C=C/c1ccc(Cl)cc1Cl)c1c(O)cc(O)cc1O` [Compound 23, 2,4-dichloro-2′,4′,6′-trihydroxychalcone], for which the inhibition (in general, the change of the read-out against control, counted positive when it falls) at 10 µM on AKR1C4 was found to be 97 ± 0.9%; against HSD17B10, 5.2 ± 3.8%; on HSD17B7 it was 9.9 ± 4.7%; against HSD17B2 it was 88.8%.

As for `COc1cc(O)cc(O)c1C(=O)/C=C/c1ccc(Cl)cc1Cl` [Compound 25], the “Inhibition of AKR1C4 at 10 µM in %” value at AKR1C4 is reported as 41.6 ± 1.8%. Moreover, at HSD17B10, the “Inhibition of HSD17B10 at 10 µM in %” value is given as -0.5 ± 7.3%. Further, at HSD17B7, the “Inhibition of HSD17B7 at 10 µM in %” value was found to be 37.7 ± 11.4%. For the same molecule, at HSD17B2, the “Inhibition of HSD17B2 at 10 µM in %” value is 12.7 ± 2.3%.
